The data set in a line: Pharmacokinetic parameters following intravenous administration in rats. The class given is in vivo. As to conditions: rat; for MRT / half-life: male, Wistar, plasma, iv. The procedure:
The pharmacokinetic parameters of the substance are determined in male CD-1 mice, male Wistar rats and female beagles. The administration volume is 10 ml/kg for mice, 5 ml/kg for rats and 0.5 ml/kg for dogs. Intravenous administration is via a formulation of species-specific plasma/DMSO (99/1) in the case of mice and rats and via water/PEG400/ethanol (50/40/10) in the case of dogs. For easier removal of blood, a silicone catheter is inserted into the right Vena jugularis externa of the rats before the administration of substance. The surgical intervention takes place one day prior to the experiment with isofluran anaesthesia and administration of an analgetic (atropine/rimadyl (3/1) 0.1 ml s.c.). Substance administration is as i.v. bolus in the case of mice, as i.v. bolus or via a 15-minute infusion in the case of rats and via a 15-minute infusion in the case of dogs. Removal of blood is after 0.033, 0.083, 0.17, 0.5, 1, 2, 3, 4, 6, 7 and 24 hours in the case of mice and, after a 15-minute infusion, after 0.083, 0.25, 0.28 0.33, 0.42, 0.75, 1, 2, 3, 4, 6, 7 and 24 hours in the case of dogs and rats and after an i.v. bolus administration, after 0.033, 0.083, 0.17, 0.5, 1, 2, 3, 4, 6, 7 and 24 hours in the case of rats. For all species, oral administration of the dissolved substance via gavage is carried out based on a water/PEG400/ethanol formulation (50/40/10). Here, the removal of blood from rats and dogs is after 0.083, 0.17, 0.5, 0.75, 1, 2, 3, 4, 6, 7 and 24 hours. The blood is removed into heparinized tubes. The blood plasma is then obtained by centrifugation; if required, it can be stored at −20° C. until further processing.
An internal standard (ZK 228859) is added to the unknown samples, calibration samples and QCs, and the protein is precipitated using excess acetonitrile. After addition of an ammonium acetate buffer (0.01 M, pH 6.8 (Example 1/3) or pH 3.0 (Example 2)) and subsequent vortexing, the mixture is centrifuged at 1000 g and the supernatant is examined by LC-MS/MS (API 4000, AB Sciex). Chromatographic separation is carried out on an Agilent 1100-HPLC. The injection volume is 10 μl. The separation column used is a Phenomenex Luna 5μ C8(2) 100 A 50×2 mm, adjusted to a temperature of 40° C. For Example 1, a binary mobile phase gradient at 400 μl/min is used (A: 0.01M ammonium acetate buffer pH 6.8, B: 0.1% formic acid in acetonitrile): 0 min (90% A), 1 min (90% A), 3.5 min (15% A), 4.5 min (15% A), 4.6 min (90% A), 7 min (90% A). For Example 2, a binary mobile phase gradient at 500 μl/min is used instead (A: 0.01M ammonium acetate buffer pH 3.0, B: 0.1% formic acid in acetonitrile): 0 min (90% A), 1.5 min (90% A), 3.5 min (10% A), 4.5 min (10% A), 5 min (90% A), 7 min (90% A). For Example 3, a binary mobile solvent gradient at 500 μl/min is used instead (A: 0.01M ammonium acetate buffer pH 6.8, B: 0.1% formic acid in acetonitrile): 0 min (90% A), 1 min (90% A), 3 min (10% A), 4 min (10% A), 4.5 min (90% A), 6 min (90% A). The temperature of the Turbo V ion source is 500° C. The following MS instrument parameters are used: curtain gas 20 units (Example 1), 16 units (Example 2) or 15 units (Example 3), ion spray voltage 5 kV (Example 1/2) or 4.5 units (Example 3), gas 1 35 units (Example 1/3) or 25 units (Example 2), gas 2 30 units, CAD gas 4 units (Example 1/3) or 3 units (Example 2). The substances are quantified by peak heights or areas using extracted ion chromatograms of specific MRM experiments.
The plasma concentration/time plots determined are used to calculate the pharmacokinetic parameters such as AUC, Cmax, MRT (mean residence time), t1/2 (half life) and CL (clearance) employing the validated pharmacokinetic calculation programs KinEx (Vers. 2.5 and 3).
As the substance quantification is carried out in plasma, it is necessary to determine the blood/plasma distribution of the substance to be able to adjust the pharamacokinetic parameters in an appropriate manner. […]

[1] abbreviates: 0.3 mg/kg i.v., 15-minute infusion.
Setting [2] is: 0.3 mg/kg i.v. bolus administration.

SMILES strings stand for the structures.

A word on the MRT: it is the average time that molecules of a dose stay in the body. As usually defined, the half-life is the time needed for the level to fall by half in the phase considered. A low value points to rapid decline. Under setting [1], `COC(=O)Nc1c(N)nc(-c2nn(Cc3ccccc3F)c3ncc(F)cc23)nc1N` [Example 1, Methyl {4,6-diamino-2-[5-fluoro-1-(2-fluorobenzyl)-1H-pyrazolo[3,4-b]pyridin-3-yl]pyrimidin-5-yl}carbamate] had an MRT of 4.1 h, a half-life of 3.4 h, an AUCnorm of 4.36 kg·h/L and a CLblood of 0.29 lh/kg.

Under setting [2], `COC(=O)N(C)c1c(N)nc(-c2nn(Cc3ccccc3F)c3ncc(F)cc23)nc1N` [Example 2] gave an MRT of 2.3 h, a half-life of 1.7 h, an AUCnorm of 1.79 kg·h/L and a CLblood of 0.53 lh/kg.

With `COC(=O)N(CC(F)(F)F)c1c(N)nc(-c2nn(Cc3ccccc3F)c3ncc(F)cc23)nc1N` [Example 3, Methyl {4,6-diamino-2-[5-fluoro-1-(2-fluorobenzyl)-1H-pyrazolo[3,4-b]pyridin-3-yl]pyrimidin-5-yl}(2,2,2-trifluoroethyl)carbamate], under setting [2], the MRT worked out at 2.3 h, the half-life is 1.9 h, the AUCnorm was determined as 1.36 kg·h/L and the CLblood is 1.02 lh/kg.

(Values after patent US11439642B2 (Adverio Pharma GmbH, priority 2010, dated 2022).)
